Data: US20240188571A1, “EMULSIFIABLE CONCENTRATE COMPOSITION AS WOOD PROTECTANT AND FOR TERMITE AND FUNGAL PATHOGENS CONTROL APPLICATIONS” (priority 2021, published 2024)
Marks after values point to notes of the source that are not given here.

How the values were obtained:
decay fungi = test: Protection of wood from decay fungi, Marandi wood blocks kept in open space for one year; details: Marandi wood blocks sprayed, untreated control infested by Fusarium oxysporum
Description: Blocks of Marandi wood of size 30×15×4 cm (L×B×W) were taken for the experiment. The emulsion of cedar wood oil emulsifiable concentrate formulation in water was sprayed on two replicates of wooden blocks using a band sprayer. No emulsion was applied on untreated control. Market sample of Propiconazole was used as standard check for comparing the effect of this botanical cedar wood oil emulsifiable concentrate formulation. The blocks after application and untreated control were kept in open space for a period of one year starting from the month of November up to the month of October to subject the blocks to winter, summer and rainy season. Observations on the wooden blocks were taken to check the infestation of fungi and damage caused by fungi.

[1] = test system: termite, Odontotermes sp.; test: Topical (direct contact toxicity) assay against termites, planar arena; format: in vivo; details: 25 ml/lit., after 24 hours, mean of five replications
Method: (§1) The formulation was evaluated under laboratory conditions following standard protocols for its contact and surface toxicity, against termite, Odontotermes sp. to simulate real field conditions. In the topical (direct contact toxicity) assay, the bio-termiticide was sprayed directly on the termites and mortality (death), repellence (moving away) or anti-feedant (non-feeding) effects were studied. This assay was carried out in simulation of curative management viz., post-infestation management. In the surface toxicity assay the surface on which the termites walk over was sprayed, termites were allowed to move on the treated surface later and mortality (death), repellence (moving a way) or anti-feedant (non-feeding) effects were studied. This assay was carried out in simulation of preventive management viz., pre-infestation management. These two methods were planned as they suffice the current needs of pre- and post-infestation termite management.
(§2) Both the topical and surface toxicity bioassays were carried out using planar arena assay method (Chouvenc et al. 20112011, Planar Arenas for Use in Laboratory Bioassay Studies of Subterranean Termites (Rhinotermitidae). Florida Entomologist, 94(4): 817-826) with minor modifications. Seven concentrations of the cedar wood oil Emulsifiable concentrate formulation, standard check Chlorpyriphos and untreated control were used in the bioassay. […]

[2] = test system: termite, Odontotermes sp.; test: Surface toxicity assay against termites, planar arena; format: in vivo; details: 25 ml/lit., termites released one hour after spraying, mean of five replications
Method: as §1, §2

CCCC1COC(Cn2cncn2)(c2ccc(Cl)cc2Cl)O1 (centres unmarked) [Propiconazole]
infestation of fungi on treated wooden blocks (decay fungi): No infestation of the fungi

CCOP(=S)(OCC)Oc1nc(Cl)c(Cl)cc1Cl [Chlorpyriphos]
Percent Mortality [1]: 92 (73.57)^b Percent | Percent repellence [1]: 0 (0.29)^e Percent | Percent Mortality [2]: 80 (63.43)^b Percent | Percent repellence [2]: 4 (11.54)^e Percent
